According to article PMC6062912, “The Evolutionary Conserved γ-Core Motif Influences the Anti-Candida Activity of the Penicillium chrysogenum Antifungal Protein PAF” (Frontiers in Microbiology, 2018):
In brackets after ≈: the same amount, converted by molar mass. Several values for one entry are separate records, joined by “and”; a condition that tells them apart may be missing. Equal entries are not always repeated. Where two headings read alike, the source gives them in different places. Positions of bridges follow the written chain, without caps; N, C: chain ends. Residues, ends and D or L forms follow the SMILES beside them. *: point of attachment. Acm = CC(=O)NC*

Key:
Type in all cases: cell-based, Candida albicans
C. albicans [1] = conditions: for antifungal activity of scrambled peptide analog compared with original peptide: compared with Pγ, Pγ^var and Pγ^opt, respectively, data not shown; for MIC: 24 h
Protocol: Fungal strains used in this study are listed in Supplementary Table S1 and composition of growth media is given in Supplementary Table S2. All P. chrysogenum shaking cultures were inoculated with 2 × 10^8 conidia, in 200 mL defined minimal medium (PcMM) for protein expression or complete medium (CM) before transformation, and grown at 25°C as described ([Sonderegger et al., 2016]). For conidial suspension generation from surface cultures, P. chrysogenum was grown on PcMM agar at 25°C. C. albicans was used as PAF-sensitive model organism and was cultivated on yeast extract peptone dextrose (YPD) agar at 37°C. For growth inhibition and susceptibility assays, C. albicans was grown in 20-fold diluted potato dextrose broth (PDB, Sigma-Aldrich) at 30°C, pH 5.5 ([Huber et al., 2018]).
The MIC of all protein and peptide variants was determined on C. albicans with broth microdilution assays in 96-well microtiter plates (Nunclon Delta, Thermo Fisher Scientific). From a fresh C. albicans overnight culture on YPD agar, cells were harvested with an inoculation loop and suspended in 0.05× PDB (Sigma-Aldrich) ([Arendrup et al., 2016]). The cell number was determined with a counting chamber (Bürker) and the cell number was adjusted to 10^4 mL^-1. In each well, 10^3 cells were incubated with increasing concentrations of antifungal proteins or peptides in a final volume of 200 μL 0.05× PDB. The plates were incubated for 24 h at 30°C before the growth was determined by measuring the optical density (OD620nm) with a multi-mode microplate reader (FLUOstar Omega, BMG Labtech). The MIC was defined as the protein concentration that inhibited growth by ≥90% compared to the untreated control, which was referred as 100% growth.

C. albicans [2] = conditions: 2 h
Protocol: Fungistatic or fungicidal activities were determined by incubating C. albicans (10^4 cells mL^-1) in 0.05× PDB with proteins and peptides at 1× MIC and 2× MIC of at 30°C under continuous shaking (800 rpm) in a Thermomixer Comfort (Eppendorf). At defined time points, aliquots were taken and appropriate dilutions were plated on YPD agar in duplicates to promote growth of viable cells. Agar plates were incubated at 37°C for 24 h to count colony forming units (cfu) ([Huber et al., 2018]).
The determination of the MIC concentration is a well-established, reliable method to elucidate the growth reducing effect of an antifungal compound. […] To gain deeper insight into the antifungal mechanism of the generated protein and peptide variants, we compared them first for their fungicidal potential. In liquid culture C. albicans was exposed to 1× MIC and 2× MIC concentrations of each protein and peptide. After certain time points aliquots were taken and appropriate dilutions were spread on agar plates to allow colony formation of viable cells. The cfu were counted and compared to the untreated control, which was set to be 100%. […] The candidacidal effects were aggravated with higher protein concentrations.

C. albicans [3] = conditions: 10 min exposure, mean ± SD, untreated control 1.8 ± 1.2%
Protocol: (§1) To analyze changes in cell size and to assess kinetics of cell death of C. albicans upon antifungal treatment flow cytometry was applied. For both experiments, 10^4 cells mL^-1 was incubated in 0.05× PDB with the desired AMP concentration for different time points. The incubation was performed in 1.5 mL reaction tubes at 30°C under continuous shaking at 800 rpm in a Thermomixer Comfort (Eppendorf). After incubation, the cells were centrifuged at 4°C with 3,000 ×g for 3 min. For cell size determination, the supernatant was removed and the cells were resuspended and fixed in PBS containing 3.7% (v/v) formaldehyde before changes in cell size were measured by plotting SSC against FSC. C. albicans that were incubated at 95°C for 120 min served as controls. Microscopic control-images were taken with a fluorescence microscope (Axioplan, Zeiss), equipped with a camera (Axiocam 503 mono, Zeiss) and excitation/emission filters (365/420 nm for blue fluorescence and 546/590 or 565/620 nm for red fluorescence, Zeiss). Image acquisition was performed with ZEN 2 microscope software (Zeiss, blue edition) and the cell area was measured with ImageJ 1.52d software ([Schindelin et al., 2012]).
For dead-cell staining, prior to fixation, the cells were incubated in the dark for 30 min at 4°C with 100 μL PBS containing 0.1 μL LIVE/DEAD^TM Fixable Far Red Dead Cell Stain (Thermo Fisher Scientific). The cells were then washed once in PBS and fixed in PBS containing 3.7% formaldehyde. Ethanol-inactivated dead C. albicans served as a positive staining control. The samples were then analyzed by FACS (FACSVerse Flow Cytometer, BD Biosciences), equipped with BD FACSuite software (v1.0.6.5230, BD Biosciences). Dead cells were detected at Excitation/Emission wavelength of 650/665 nm. Stained, live, and dead Candida cells were used as controls to discriminate populations and to set the gates.
To elucidate the AMPs candidacidal activities at an early stage and to compare their time and dose-dependent cell killing in more detail, fluorescence activated cell sorting (FACS) analysis with dead-cell staining was applied. To this end, C. albicans was exposed to 1× and 2× MIC of the respective AMPs for 10 min, stained with the dead-cell marker, and fixed with formaldehyde. With FACS analyses, 1.8 ± 1.2% dead cells were detected in the untreated control (Figure 3).

C. albicans biofilms = experiment: Anti-biofilm activity, FDA fluorescence; conditions: AMP 0–40 μM for 24 h at 30°C; for concentration inhibiting cell metabolism in biofilm (FDA fluorescence): 24-h-old biofilms; for concentration with anti-biofilm (inhibitory) activity, extinction of FDA fluorescence: 1 h old (young) biofilms
Protocol: The antifungal activity against C. albicans biofilms was determined in 96-well microtiter plates (Nunclon Delta, Thermo Fisher Scientific). Cells (10^5) in 100 μL 0.05× PDB were distributed per well and plates were incubated at 37°C for up to 24 h to allow biofilm formation. After cell adherence, the microtiter plates were washed once with 0.05× PDB and the test substances were added in increasing concentrations in 100 μL 0.05× PDB per well. H2O2 served as a control for cell killing. The plates were further incubated at 30°C for 24 h. The wells were washed once with 0.05× PDB and 100 μL of FDA solution (40 μg mL^-1 in 0.05× PDB) was added to the wells. Wells containing only FDA solution (40 μg mL^-1 in 0.05× PDB) were used as blank background control. The plates were incubated for 1 h at 37°C in the dark before the fluorescence signal intensity was measured in a multi-mode microplate reader (FLUOstar Omega, BMG Labtech) with excitation and emission wavelengths of 485 and 520 nm. All experiments were prepared at least in duplicates and repeated at least twice.
Next, we analyzed the potential of the AMPs to inhibit C. albicans biofilm formation. Low susceptibility of biofilms to antifungal agents is often a limiting factor in anti-Candida treatment. To this end, C. albicans cells were distributed in 96-well microtiter plates, allowed to settle down, and to develop biofilms for 1 and 24 h. Then, planktonic cells were washed off and AMPs were added to the biofilms for another 24 h in a concentration range of 0–40 μM. The biofilms were then quantified by adding FDA to the wells. Metabolically active cells convert non-fluorescent FDA into highly fluorescent fluorescein by intracellular enzymatic activity ([Peeters et al., 2008]). The resulting fluorescence signal intensity from AMP-treated biofilms was measured and compared to untreated conditions. […] Twenty-four-hour-old biofilms, however, were resistant against PAF, PAF^var, and PAF^opt in the investigated concentration range (data not shown).

C. albicans [4] = experiment: Cell size reduction (FSC) by flow cytometry; conditions: 1× MIC and 2× MIC, 10 and 30 min
Protocol: as §1
Cell shrinkage of C. albicans is a sign for cell death when exposed to AMPs ([Lee et al., 2017]). We therefore analyzed the changes in size of AMP-treated C. albicans cells by recording the FSC with flow cytometry. To this end, C. albicans cells were analyzed after 10 and 30 min of exposure to 1× MIC and 2× MIC of AMPs (Figure 5). Heat-killed and untreated C. albicans cells served as positive and negative controls, respectively (Supplementary Figure S8). […] Pγ^var and Pγ^opt caused a very prominent decrease in the FSC value compared to the untreated cell population when applied at 2× MIC. Pγ^var and Pγ^opt reduced the average cell size after a 10-min treatment by 28 ± 13 (P = 0.022) and 18 ± 10% (P = 0.041), respectively, and after 30 min the cell size was reduced by 48 ± 8 (P < 0.001) and 37 ± 12% (P = 0.007), respectively.

[5] = 1× MIC, 0.05× PDB, 30°C, mean ± SD

## TNGKKYKKKEYCCK [Pγ^var_scr, scrambled peptide analog of Pγ^var]
C. albicans [1]
  antifungal activity of scrambled peptide analog compared with original peptide: same antifungal activity

## CC(=O)NCSC[C@H](NC(=O)[C@H](CCC(=O)O)NC(=O)[C@H](CC(N)=O)NC(=O)[C@H](CCCCN)NC(=O)[C@H](CO)NC(=O)[C@H](CCCCN)NC(=O)[C@@H](NC(=O)[C@H](CSCNC(C)=O)NC(=O)[C@H](CCCCN)NC(=O)CNC(=O)[C@@H](NC(=O)[C@H](Cc1ccc(O)cc1)NC(=O)[C@H](CCCCN)NC(C)=O)[C@@H](C)O)[C@@H](C)O)C(=O)N[C@@H](CCCCN)C(N)=O [Pγ_prot] (Ac-KYTGKC(Acm)TKSKNEC(Acm)K-NH2)
C. albicans [1]
  MIC: 40 µM (≈ 72 µg/mL)

## CC(=O)N[C@@H](CCCCN)C(=O)N[C@@H](Cc1ccc(O)cc1)C(=O)N[C@H](C(=O)NCC(=O)N[C@@H](CCCCN)C(=O)N[C@H]1CSSC[C@@H](C(=O)N[C@@H](CCCCN)C(N)=O)NC(=O)[C@H](CCC(=O)O)NC(=O)[C@H](CC(N)=O)NC(=O)[C@H](CCCCN)NC(=O)[C@H](CO)NC(=O)[C@H](CCCCN)NC(=O)[C@H]([C@@H](C)O)NC1=O)[C@@H](C)O [Pγ_ox] (Ac-KYTGKCTKSKNECK-NH2; disulfide 6-13)
C. albicans [1]
  MIC: 40 µM (≈ 66.3 µg/mL)

## CTNKYSCKKGETKK [Pγ_scr, scrambled peptide analog of Pγ]
C. albicans [1]
  antifungal activity of scrambled peptide analog compared with original peptide: same antifungal activity

## TCKKNKKKKYGKTC [Pγ^opt_scr, scrambled peptide analog of Pγ^opt]
C. albicans [1]
  antifungal activity of scrambled peptide analog compared with original peptide: same antifungal activity

## CC(=O)N[C@@H](CCCCN)C(=O)N[C@@H](Cc1ccc(O)cc1)C(=O)N[C@H](C(=O)NCC(=O)N[C@@H](CCCCN)C(=O)N[C@@H](CS)C(=O)N[C@H](C(=O)N[C@@H](CCCCN)C(=O)N[C@@H](CO)C(=O)N[C@@H](CCCCN)C(=O)N[C@@H](CC(N)=O)C(=O)N[C@@H](CCC(=O)O)C(=O)N[C@@H](CS)C(=O)N[C@@H](CCCCN)C(N)=O)[C@@H](C)O)[C@@H](C)O [Pγ] (Ac-KYTGKCTKSKNECK-NH2)
C. albicans [1]
  MIC: 10.0 µM (≈ 16.6 µg/mL)
C. albicans [2]; [5]
  Candida cells killed (cfu vs untreated control): no killing effects
C. albicans [2]; 2
  Candida cells killed (cfu vs untreated control): 31 ± 23%
C. albicans [3]; 1× MIC
  dead cells (cells killed), FACS dead-cell staining: No significant cell-killing
C. albicans [3]; 2× MIC
  dead cells (cells killed), FACS dead-cell staining: No significant cell-killing
C. albicans biofilms
  concentration inhibiting cell metabolism in biofilm (FDA fluorescence): no impact
  concentration with anti-biofilm (inhibitory) activity, extinction of FDA fluorescence: 40 µM
C. albicans [4]
  cell shrinkage: did not result in cell shrinkage

## Penicillium chrysogenum antifungal protein [PAF]
C. albicans [1]; 10^3 cells per well in 200 μL 0.05× PDB, 30°C, OD620nm, MIC = concentration inhibiting growth by ≥90% vs untreated control
  MIC: 5 µM and 5.0 µM
C. albicans [2]; [5]
  Candida cells killed (cfu vs untreated control): no detectable killing activity
C. albicans [2]; 2× MIC, 0.05× PDB, 30°C, mean ± SD
  Candida cells killed (cfu vs untreated control): 26 ± 6%
C. albicans [3]; 1× MIC
  dead cells (cells killed), FACS dead-cell staining: did not cause significant increase
C. albicans [3]; 2× MIC
  dead cells (cells killed), FACS dead-cell staining: did not cause significant increase
C. albicans biofilms
  concentration inhibiting cell metabolism in biofilm (FDA fluorescence): resistant
  concentration with anti-biofilm (inhibitory) activity, extinction of FDA fluorescence: only moderately reduced the metabolic activity
C. albicans [4]
  cell shrinkage: did not result in cell shrinkage
